Where “and” joins values, the source holds several entries; their conditions need not be identical. Equal values may be shown once.
Legend:
diabetic rats [1] = experiment: Glucose time course after gavage of ammonium bis(maltolato)dioxovanadate in STZ diabetic rats; assay type: in vivo, male Wistar rats; conditions: 0.55 mmoles/kg gavage
Procedure: Six male Wistar rats, weighing 175-200 gm, were made diabetic by the intravenous injection of 60 mg/kg of streptozotocin dissolved in 0.9% saline via the tail vein. Seven days after the injection the rats were diabetic having an average glucose concentration of 24.20 mM. 0.55 mmoles/kg of the ammonium salt of bis(maltolato)dioxovanadate suspended in 3% acacia was gavaged into the rats. Blood was collected and analyzed for glucose as a function of time.

Na^+ -K^+ ATPase = conditions: cited from earlier work
diabetic rats [2] = experiment: Comparative testing, plasma glucose after oral gavage in STZ diabetic rats; assay type: in vivo, male wistar rats; conditions: oral gavage 1 mmol/kg
Procedure: Diabetes was induced in all animals by a single intravenous injection of streptozotocin (STZ) 60 mg/kg in 0.9% NaCl via the tail vein. Three days after STZ injection, blood was collected from the tail by nicking the tail tip and expressing the blood into heparinized capillary tubes. Blood was centrifuged at 20,000 g for 10 minutes to separate the plasma. Glucose analysis was done immediately on the plasma sample using a Boehringer Mannheim kit. […] One week after STZ injection animals were randomly divided into 3 pairs of rats. Each pair of rats received by oral gavage 1 mmol/kg of BMOV or VO(Sal)2 or VO(acac)2, suspended in 3% acacia.

[3] = in vivo; cited from earlier work
[4] = in vivo; cited from earlier work; remark: listed apart in the source
[5] = cited from earlier work
red blood cells = conditions: cytoplasm; cited from earlier work
[6] = tested on: rats made diabetic with streptozoticin (STZ); conditions: oral / drinking water; cited from earlier work
rat adipocytes = conditions: in vitro; cited from earlier work
[7] = log p (partition coefficient); assay type: physicochemical
diabetic rats [8] = experiment: Comparison of BMOV and vanadyl kojate, acute time course of plasma glucose, rats made diabetic with STZ; assay type: in vivo, rat; design: plasma glucose level: unit not given here
Procedure: Using BMOV and Vanadyl Kojate as prepared in Examples 1 and 2 above, the relative efficacy of the two compounds was assessed using rats made diabetic with STZ. Again the animals were divided into responder and non-responder groups. For a 0.063 mmol V/kg ip injection, BMOV gave a 50:50 split between responder and non-responder groups whereas for vanadyl kojate the ratio was 60:40. On oral gavage of 0.55 mmol V/kg the responder:non-responder ratios were 50:50 and 57:43 respectively (n=10). However over a 12 day test period, there was a 100% response in terms of blood glucose reduction for diabetic rats receiving vanadyl kojate orally.

Wistar Kyoto (WKY) rats = experiment: Blood pressure study with vanadyl sulphate, normotensive Wistar Kyoto rats; assay type: in vivo, rat; conditions: for changes in normotensive animals, prevention: WKYV; for effect in Wistar Kyoto rats, reversal: WKYV1, treatment from week 11
Procedure: (§1) The insulin resistant spontaneously hypertensive rat was used as the experiment model and the vanadyl form of vanadium as the experimental intervention. […] Rats, procured at 4 weeks of age, were divided
(§2) into 4 groups: SHR (untreated), SHRV (treated), WKY (untreated), WKYV (treated). Chronic vanadyl sulfate treatment (0.75 mg/ml ad libitum in the drinking water) was started on the SHRV and WKYV groups at 5 weeks of age. After week 8, when hypertension becomes fully manifest in the SHR, weekly measurements of plasma insulin and systolic blood pressure (tail cuff method) were done on all four groups.
(§3) At week 11, the untreated control SHR and WKY groups from the prevention study were further subdivided and half the animals in each group were started on oral vanadyl sulfate treatment. This was done to observe the reversal effects of vanadyl, if any, after the SHR had become hypertensive. […] A direct blood pressure reading done in all groups at termination validated the earlier indirect measurements. Vanadyl sulfate prevented as well as reversed hypertention in the hyperinsulinemic spontaneously hypertensive rat, a model that closely resembles human essential hypertension. Besides establishing further the role that insulin resistance/hyperinsulinemia may play in the development of high blood pressure, this study also indicated a possible therapeutic role for vanadyl sulfate in hypertensive, hyperinsulinemic subjects.

[9] = tested on: spontaneously hypertensive rats (SHR); experiment: Blood pressure reduction by vanadyl sulphate, spontaneously hypertensive rats; assay type: in vivo, rat; conditions: for systolic blood pressure / hypertension, prevention: 75-125 mg/kg/day in drinking water
Procedure: as §1, §2, §3

STZ-diabetic rats = experiment: Comparison of BMOV and ETHYLBMOV, plasma glucose and insulin in STZ-diabetic rats; assay type: in vivo, rat; conditions: 0.6 mmol kg^-1, one oral gavage, 24 hour period
Procedure: Animal studies were conducted in STZ-diabetic rats comparing doses of 0.6 mmol kg^-1 for VO(ma)2 (BMOV) and VO(ema)2 (ETHYLVMOV). FIGS. 8 and 9 respectively show plasma glucose and plasma insulin values recorded over 24 hour periods after one oral gavage of a water solution of either BMOV or ETHYLBMOV, in order to compare their efficacies.

[10] = 0 h, individual rats (two per drug)
[11] = SHRV, 75-125 mg/kg/day, weeks 8-12

## Cc1occc(=O)c1[O-].Cc1occc(=O)c1[O-].[NH4+].[O]=[V+]=[O] [Ammonium bis(maltolato)dioxovanadate]
Diabetic rats [1]
  reduction of elevated glucose levels, in words: effective in reducing the elevated glucose levels
Diabetic rats [1]; 0 h
  Glucose: 24.2 mM
Diabetic rats [1]; 1 h
  Glucose: 24.4 mM
Diabetic rats [1]; 2 h
  Glucose: 25.5 mM
Diabetic rats [1]; 4 h
  Glucose: 24.7 mM
Diabetic rats [1]; 8 h
  Glucose: 22.3 mM
Diabetic rats [1]; 12 h
  Glucose: 20.1 mM
Diabetic rats [1]; 24 h
  Glucose: 14.9 mM

## [Na+].[Na+].[Na+].[O]=[V]([O-])([O-])[O-] [Sodium orthovanadate]
Na^+ -K^+ ATPase
  inhibition of Na^+ -K^+ ATPase: potent inhibitor

## O=Cc1ccccc1[O-].O=Cc1ccccc1[O-].[O]=[V+2] [VO(Sal)2, Bis(salicylaldehyde)oxovanadium(IV)]
Diabetic rats [2]; [10]
  plasma glucose level: 21.09 mM and 21.12 mM
Diabetic rats [2]; 2 h, individual rats
  plasma glucose level: 22.77 mM and 22.31 mM
Diabetic rats [2]; 4 h, individual rats
  plasma glucose level: 20.18 mM and 21.74 mM
Diabetic rats [2]; 6 h, individual rats
  plasma glucose level: 20.67 mM and 21.85 mM
Diabetic rats [2]; 8 h, individual rats
  plasma glucose level: 21.57 mM and 21.59 mM
Diabetic rats [2]; 12 h, individual rats
  plasma glucose level: 19.24 mM and 19.74 mM
Diabetic rats [2]; 24 h, individual rats
  plasma glucose level: 18.73 mM and 18.64 mM

## CC(=O)/C=C(/C)[O-].CC(=O)/C=C(/C)[O-].[O]=[V+2] [VO(acac)2, Bis(acetylacetonate)oxovanadium(IV)]
Diabetic rats [2]; [10]
  plasma glucose level: 23.87 mM and 22.74 mM
Diabetic rats [2]; 2 h, individual rats
  plasma glucose level: 22.91 mM and 24.5 mM
Diabetic rats [2]; 4 h, individual rats
  plasma glucose level: 22.37 mM and 22.89 mM
Diabetic rats [2]; 6 h, individual rats
  plasma glucose level: 23.96 mM and 22.94 mM
Diabetic rats [2]; 8 h, individual rats
  plasma glucose level: 27.19 mM and 23.65 mM
Diabetic rats [2]; 12 h, individual rats
  plasma glucose level: 19.13 mM and 18.86 mM
Diabetic rats [2]; 24 h, individual rats
  plasma glucose level: 2.43 mM
Diabetic rats [2]; 24 h, rat 5
  death: dead

## [O]=[V]([O-])([O-])[O-] [vanadate]
[3]
  absorption from the gastrointestinal tract: poorly absorbed
[4]
  toxicity: toxic
[5]
  in vivo reduction: reduced in vivo to vanadyl
Red blood cells
  reduction of vanadate in red blood cells: reduced to vanadium (IV)
[6]
  blood glucose: decreased the elevated blood glucose
  cardiac performance / secondary complications of diabetes: prevented the depression of cardiac performance

## [O]=[V+2] [vanadyl ion]
Rat adipocytes
  insulin-like stimulation of glucose oxidation: insulin-like stimulation of glucose oxidation

## [O]=[V-2]12([O]C3=COC(CO)=CC3=[O+]1)[O]C1=COC(CO)=CC1=[O+]2 [vanadyl kojate, Bis(kojato)oxovanadium(IV)]
[7]
  log p: 0.012
Diabetic rats [8]; i.p. 0.063 mmol/kg, nonresponders (DTN), 0 h
  plasma glucose level: 20.86
Diabetic rats [8]; i.p. 0.063 mmol/kg, nonresponders (DTN), 1 h
  plasma glucose level: 18.55
Diabetic rats [8]; i.p. 0.063 mmol/kg, nonresponders (DTN), 2 h
  plasma glucose level: 16.62
Diabetic rats [8]; i.p. 0.063 mmol/kg, nonresponders (DTN), 4 h
  plasma glucose level: 17.37
Diabetic rats [8]; i.p. 0.063 mmol/kg, nonresponders (DTN), 6 h
  plasma glucose level: 16.62
Diabetic rats [8]; i.p. 0.063 mmol/kg, nonresponders (DTN), 8 h
  plasma glucose level: 15.49
Diabetic rats [8]; i.p. 0.063 mmol/kg, nonresponders (DTN), 12 h
  plasma glucose level: 18.24
Diabetic rats [8]; i.p. 0.063 mmol/kg, nonresponders (DTN), 24 h
  plasma glucose level: 18.77
Diabetic rats [8]; i.p. 0.063 mmol/kg, responders (DTR), 0 h
  plasma glucose level: 17.94
Diabetic rats [8]; i.p. 0.063 mmol/kg, responders (DTR), 1 h
  plasma glucose level: 14.75
Diabetic rats [8]; i.p. 0.063 mmol/kg, responders (DTR), 2 h
  plasma glucose level: 10.17
Diabetic rats [8]; i.p. 0.063 mmol/kg, responders (DTR), 4 h
  plasma glucose level: 9.26
Diabetic rats [8]; i.p. 0.063 mmol/kg, responders (DTR), 6 h
  plasma glucose level: 8.73
Diabetic rats [8]; i.p. 0.063 mmol/kg, responders (DTR), 8 h
  plasma glucose level: 7.4
Diabetic rats [8]; i.p. 0.063 mmol/kg, responders (DTR), 12 h
  plasma glucose level: 10.37
Diabetic rats [8]; i.p. 0.063 mmol/kg, responders (DTR), 24 h
  plasma glucose level: 13.28
Diabetic rats [8]; oral gavage 0.55 mmol/kg, nonresponders (DTN), 0 h
  plasma glucose level: 23.08
Diabetic rats [8]; oral gavage 0.55 mmol/kg, nonresponders (DTN), 1 h
  plasma glucose level: 21.18
Diabetic rats [8]; oral gavage 0.55 mmol/kg, nonresponders (DTN), 2 h
  plasma glucose level: 21.51
Diabetic rats [8]; oral gavage 0.55 mmol/kg, nonresponders (DTN), 4 h
  plasma glucose level: 20.57
Diabetic rats [8]; oral gavage 0.55 mmol/kg, nonresponders (DTN), 6 h
  plasma glucose level: 18.2
Diabetic rats [8]; oral gavage 0.55 mmol/kg, nonresponders (DTN), 8 h
  plasma glucose level: 19.06
Diabetic rats [8]; oral gavage 0.55 mmol/kg, nonresponders (DTN), 12 h
  plasma glucose level: 18.81
Diabetic rats [8]; oral gavage 0.55 mmol/kg, nonresponders (DTN), 24 h
  plasma glucose level: 25.0
Diabetic rats [8]; oral gavage 0.55 mmol/kg, responders (DTR), 0 h
  plasma glucose level: 15.75
Diabetic rats [8]; oral gavage 0.55 mmol/kg, responders (DTR), 1 h
  plasma glucose level: 12.5
Diabetic rats [8]; oral gavage 0.55 mmol/kg, responders (DTR), 2 h
  plasma glucose level: 10.1
Diabetic rats [8]; oral gavage 0.55 mmol/kg, responders (DTR), 4 h
  plasma glucose level: 7.96
Diabetic rats [8]; oral gavage 0.55 mmol/kg, responders (DTR), 6 h
  plasma glucose level: 6.6
Diabetic rats [8]; oral gavage 0.55 mmol/kg, responders (DTR), 8 h
  plasma glucose level: 6.87
Diabetic rats [8]; oral gavage 0.55 mmol/kg, responders (DTR), 12 h
  plasma glucose level: 6.01
Diabetic rats [8]; oral gavage 0.55 mmol/kg, responders (DTR), 24 h
  plasma glucose level: 6.74
Diabetic rats [8]; oral, 12 day test period
  food and fluid demand: significantly reduced
  response in terms of blood glucose reduction: 100%

## O=S(=O)([O-])[O-].[O]=[V+2] [vanadyl sulfate]
[3]
  absorption from the gastrointestinal tract: poorly absorbed
Wistar Kyoto (WKY) rats
  changes in normotensive animals, prevention: No changes were seen
  effect in Wistar Kyoto rats, reversal: no effect
Wistar Kyoto (WKY) rats; listed as vanadyl
  effect in Wistar Kyoto rats, reversal: no effect is observed
  changes in normotensive animals, prevention: No change is observed
Wistar Kyoto (WKY) rats; normal animals
  adverse effect on normal animals (hypotension): no adverse effect on normal animals
[4]
  toxicity: less toxic than the vanadate form of vanadium
[9]; SHRV1, treatment from week 11
  hypertension / blood pressure, reversal: reversed hypertension
  plasma insulin, reversal: lowering their plasma insulin to control values
[9]; SHRV1, treatment from week 11, listed as vanadyl
  hypertension / blood pressure, reversal: reduce the blood pressure
[9]; SHRV, weeks 8-12
  systolic blood pressure / hypertension, prevention: lowered both plasma insulin and systolic blood pressure
[9]; SHRV, weeks 8-12, listed as vanadyl
  systolic blood pressure / hypertension, prevention: prevents the onset of hypertension
[9]; [11]
  plasma glucose levels: without causing any change in the plasma glucose levels
  plasma insulin, prevention: lowered both plasma insulin and systolic blood pressure
[9]; treated animals, 75-125 mg/kg/day, entire experimental period
  gastrointestinal, renal or hepatic toxicity: No gastrointestinal, renal or hepatic toxicity
[6]
  blood glucose: lowers blood glucose and blood lipids
  cardiac performance / secondary complications of diabetes: prevents secondary complications of diabetes such as cataracts and cardiac dysfunction

## Bis(ethylmaltolato)oxovanadium(IV) [ETHYLBMOV]
STZ-diabetic rats
  plasma glucose, difference BMOV vs ETHYLBMOV: statistically insignificant
  plasma insulin, difference BMOV vs ETHYLBMOV: statistically insignificant

Source: patent US5888993A, “Vanadium compounds in the treatment of elevated blood sugar levels” (The University of British Columbia, priority 1997, dated 1999)
